Values of other authors in patent publication US20240261272A1, “LPA1 ANTAGONISTS FOR TREATING INTERSTITIAL LUNG DISEASE” (Bristol-Myers Squibb Company, priority 2022, published 2024).

Experiments:
patients with IPF = details: cited from earlier work
patients with PPF = details: 52-week study period; cited from earlier work

Structure (SMILES) | decline in lung function (in words) (patients with IPF) | progression of lung fibrosis, annual rate of decline in FVC versus placebo (in words) (patients with PPF)
COC(=O)c1ccc2c(c1)NC(=O)/C2=C(\Nc1ccc(N(C)C(=O)CN2CCN(C)CC2)cc1)c1ccccc1 [nintedanib] | significantly reduce the decline in lung function | slower progression of lung fibrosis than those who received placebo
Cc1ccc(=O)n(-c2ccccc2)c1 [pirfenidone] | significantly reduce the decline in lung function | 
